Reference: patent US7683091B2, “Substituted indoles and methods of their use” (Wyeth, priority 2005, dated 2010)

target: T1, recombinant human plasminogen activator inhibitor-1 (PAI-1) (Homo sapiens, UniProt P05121); assay: Primary Screen for PAI-1 Inhibition (chromogenic tPA activity assay); assay type: biochemical; details: 140 nM PAI-1, 70 nM tPA, pH 6.6
T1 construct: purchased Molecular Innovations, Royal Oak, Mich
Protocol: Primary Screen for PAI-1 Inhibition
The ability of the compounds of this invention to inhibit Plasminogen Activator Inhibitor-1 was established by the following experimental procedure:
Test compounds were dissolved in DMSO at a final concentration of 10 mM, then diluted […] in physiologic buffer. The inhibitory assay was initiated by the addition of the test compound (1-100 μM final concentration, maximum DMSO concentration of 0.2%) in a pH 6.6 buffer containing 140 nM recombinant human plasminogen activator inhibitor-1 (PAI-1; Molecular Innovations, Royal Oak, Mich.). Following a 1 hour incubation at room temperature, 70 nM of recombinant human tissue plasminogen activator (tPA) was added, and the combination of the test compound, PAI-1 and tPA was incubated for an additional 30 minutes. Following the second incubation, Spectrozyme-tPA (American Diagnostica, Greenwich, Conn.), a chromogenic substrate for tPA, was added and absorbance read at 405 nm at 0 and 60 minutes. Relative PAI-1 inhibition is equal to the residual tPA activity in the presence of the test compound and PAI-1. Control treatments include the complete inhibition of tPA by PAI-1 at the molar ratio employed (2:1), and the absence of any effect of the test compound on tPA alone.

T1 sequence (P05121 24-402): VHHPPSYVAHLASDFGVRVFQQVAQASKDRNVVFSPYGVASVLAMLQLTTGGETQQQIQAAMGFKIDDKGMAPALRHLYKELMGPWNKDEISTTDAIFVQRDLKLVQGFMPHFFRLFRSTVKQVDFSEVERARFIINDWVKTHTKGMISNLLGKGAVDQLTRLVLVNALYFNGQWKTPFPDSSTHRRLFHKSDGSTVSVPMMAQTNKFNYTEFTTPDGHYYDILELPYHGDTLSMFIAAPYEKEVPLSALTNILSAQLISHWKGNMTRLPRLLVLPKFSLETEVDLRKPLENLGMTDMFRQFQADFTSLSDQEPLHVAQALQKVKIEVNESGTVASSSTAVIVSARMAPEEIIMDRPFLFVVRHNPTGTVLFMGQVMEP

| Compound | inhibition at 25 µM [%] |
| --- | --- |
| CC(C)(C)c1ccc(Cn2ccc3cc(NS(=O)(=O)c4cccc(C(=O)O)c4)ccc32)cc1 [Example 1, 3-({[1-(4-tert-butylbenzyl)-1H-indol-5-yl]amino}sulfonyl)benzoic acid] | 6 to 78 |
| COC(=O)CN(c1ccc2c(ccn2Cc2ccc(C(C)(C)C)cc2)c1)S(=O)(=O)c1ccccc1 [Example 2, {Benzenesulfonyl-[1-(4-tert-butyl-benzyl)-1H-indol-5-yl]-amino}-acetic acid methyl ester] | 6 to 78 |
| CC(C)(C)c1ccc(Cn2ccc3cc(NS(=O)(=O)c4ccc(C(=O)O)cc4)ccc32)cc1 [Example 4, 4-({[1-(4-tert-butylbenzyl)-1H-indol-5-yl]amino}sulfonyl)benzoic acid] | 6 to 78 |
| CC(C)(C)c1ccc(Cn2ccc3cc(NC(=O)Nc4cccc(C(=O)O)c4)ccc32)cc1 [Example 6, 3-[({[1-(4-tert-Butylbenzyl)-1H-indol-5-yl]amino}carbonyl)amino]benzoic acid] | 6 to 78 |
| O=C(O)C(Cc1ccccc1)n1ccc2cc(NS(=O)(=O)c3ccc(OC(F)(F)F)cc3)ccc21 (stereo not drawn) [Example 9, 3-Phenyl-2-[5-({[4-(trifluoromethoxy)phenyl]sulfonyl}amino)-1H-indol-1-yl]propanoic acid] | 6 to 78 |
| O=C(N[C@@H](Cc1ccccc1)C(=O)O)c1ccc(Cn2ccc3cc(NS(=O)(=O)c4ccccc4)ccc32)cc1 [Example 10, N-[4-({5-[(Phenylsulfonyl)amino]-1H-indol-1-yl}methyl)benzoyl]-L-phenylalanine] | 6 to 78 |
| O=C(N[C@@H](Cc1ccccc1)C(=O)O)c1ccc(Cn2ccc3cc(NS(=O)(=O)c4ccc(-c5ccccc5)cc4)ccc32)cc1 [Example 12, N-[4-({5-[(1,1′-Biphenyl-4-ylsulfonyl)amino]-1H-indol-1-yl}methyl)benzoyl]-L-phenylalanine] | 6 to 78 |
| CC(C)(C)c1ccc(S(=O)(=O)Nc2ccc3c(ccn3Cc3ccc(C(=O)N[C@@H](Cc4ccccc4)C(=O)O)cc3)c2)cc1 [Example 13, N-{4-[(5-{[(4-tert-Butylphenyl)sulfonyl]amino}-1H-indol-1-yl)methyl]benzoyl}-L-phenylalanine] | 6 to 78 |
| O=C(O)CCNC(=O)c1ccc(Cn2ccc3cc(NS(=O)(=O)c4ccc(OC(F)(F)F)cc4)ccc32)cc1 [Example 14, N-(4-{[5-({[4-(Trifluoromethoxy)phenyl]sulfonyl}amino)-1H-indol-1-yl]methyl}benzoyl)-β-alanine] | 6 to 78 |
| O=C(O)C1CCN(C(=O)c2ccc(Cn3ccc4cc(NS(=O)(=O)c5ccc(Cl)c(Cl)c5)ccc43)cc2)CC1 [Example 17, 1-{4-[(5-{[(3,4-Dichlorophenyl)sulfonyl]amino}-1H-indol-1 yl)methyl]benzoyl}piperidine-4-carboxylic acid] | 6 to 78 |
| O=C(O)C1CCN(C(=O)c2ccc(Cn3ccc4cc(NS(=O)(=O)c5ccc(-c6ccccc6)cc5)ccc43)cc2)CC1 [Example 18, 1-[4-({5-[(1,1′-Biphenyl-4-ylsulfonyl)amino]-1H-indol-1-yl}methyl)benzoyl]piperidine-4-carboxylic acid] | 6 to 78 |
| CC(C)(C)c1ccc(S(=O)(=O)Nc2ccc3c(ccn3Cc3ccc(C(=O)N4CCC(C(=O)O)CC4)cc3)c2)cc1 [Example 19, 1-{4-[(5-{[(4-tert-Butylphenyl)sulfonyl]amino}-1H-indol-1-yl)methyl]benzoyl}piperidine-4-carboxylic acid] | 6 to 78 |
| CC(C)C[C@H](NC(=O)Cn1ccc2cc(NS(=O)(=O)c3ccc(-c4ccccc4)cc3)ccc21)C(=O)O [Example 23, N-({5-[(1,1′-biphenyl-4-ylsulfonyl)amino]-1H-indol-1-yl}acetyl)-L-leucine] | 6 to 78 |

Other lines, results leading:

| inhibition at 25 µM [%] | Compound |
| --- | --- |
| 6 to 78 | CC(C)(C)c1ccc(Cn2ccc3cc(N(Cc4ccc(C(=O)O)cc4)S(=O)(=O)c4ccccc4)ccc32)cc1 [Example 3, 4-{[[1-(4-tert-Butylbenzyl)-1H-indol-5-yl](phenylsulfonyl)amino]methyl}benzoic acid] |
| 6 to 78 | CC(C)(C)c1ccc(Cn2ccc3cc(NC(=O)N[C@@H](Cc4ccccc4)C(=O)O)ccc32)cc1 [Example 5, N-({[1-(4-tert-Butylbenzyl)-1H-indol-5-yl]amino}carbonyl)-L-phenylalanine] |
| 6 to 78 | O=C(O)COc1ccc(Cn2ccc3cc(NS(=O)(=O)c4ccc(-c5ccccc5)cc4)ccc32)cc1 [Example 7, [4-({5-[(1,1′-Biphenyl-4-ylsulfonyl)amino]-1H-indol-1-yl}methyl)phenoxy]acetic acid] |
| 6 to 78 | CC(C)(C)c1ccc(S(=O)(=O)Nc2ccc3c(ccn3Cc3ccc(OCC(=O)O)cc3)c2)cc1 [Example 8, {4-[(5-{[(4-tert-Butylphenyl)sulfonyl]amino}-1H-indol-1-yl)methyl]phenoxy}acetic acid] |
| 6 to 78 | O=C(N[C@@H](Cc1ccccc1)C(=O)O)c1ccc(Cn2ccc3cc(NS(=O)(=O)c4ccc(OC(F)(F)F)cc4)ccc32)cc1 [Example 11, N-(4-{[5-({[4-(Trifluoromethoxy)phenyl]sulfonyl}amino)-1H-indol-1-yl]methyl}benzoyl)-L-phenylalanine] |
| 6 to 78 | O=C(O)CCNC(=O)c1ccc(Cn2ccc3cc(NS(=O)(=O)c4ccc(-c5ccccc5)cc4)ccc32)cc1 [Example 15, N-[4-({5-[(1,1′-Biphenyl-4-ylsulfonyl)amino]-1H-indol-1-yl}methyl)benzoyl]-β-alanine] |
| 6 to 78 | CC(C)(C)c1ccc(S(=O)(=O)Nc2ccc3c(ccn3Cc3ccc(C(=O)NCCC(=O)O)cc3)c2)cc1 [Example 16, N-{4-[(5-{[(4-tert-Butylphenyl)sulfonyl]amino}-1H-indol-1-yl)methyl]benzoyl}-β-alanine] |
| 6 to 78 | O=C(O)Cn1ccc2cc(NS(=O)(=O)c3ccc(-c4ccccc4)cc3)ccc21 [Example 20, {5-[(1,1′-Biphenyl-4-ylsulfonyl)amino]-1H-indol-1-yl}acetic acid] |
| 6 to 78 | O=C(Cn1ccc2cc(NS(=O)(=O)c3ccc(-c4ccccc4)cc3)ccc21)N[C@@H](Cc1ccccc1)C(=O)O [Example 21, N-({5-[(1,1′-Biphenyl-4-ylsulfonyl)amino]-1H-indol-1-yl}acetyl)-L-phenylalanine] |
| 6 to 78 | CC(C)(C)c1ccc(S(=O)(=O)Nc2ccc3c(ccn3CC(=O)N[C@@H](Cc3ccccc3)C(=O)O)c2)cc1 [Example 22, N-[(5-{[(4-tert-Butylphenyl)sulfonyl]amino}-1H-indol-1-yl)acetyl]-L-phenylalanine] |
| 6 to 78 | CC(C)C[C@H](NC(=O)Cn1ccc2cc(NS(=O)(=O)c3ccc(C(C)(C)C)cc3)ccc21)C(=O)O [Example 24, N-[(5-{[(4-tert-butylphenyl)sulfonyl]amino}-1H-indol-1-yl)acetyl]-L-leucine] |
